Source: patent publication US20260007681A1, “INDOLE DERIVATIVES AS ESTROGEN RECEPTOR DEGRADERS” (REGENTS OF THE UNIVERSITY OF MICHIGAN, priority 2022, published 2026)

Molecular target: ER (Homo sapiens (Human), UniProt P03372)
Experiment: Western blot analysis (Compounds B1-B278)
Type: cell-based
Details: ER degradation by traditional Western blot; DC50 classes
Summary of the method: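 Compound-treated cells were lysed in RIPA buffer (Tris.HCl pH 7.6, 1% NP-40, deoxycholate, 0.1% SDS) with protease inhibitors; equal protein was resolved on 10% SDS-PAGE, transferred to PVDF and immunoblotted. Band intensities were quantified and normalized to GAPDH.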

Chain of ER (P03372 whole entry): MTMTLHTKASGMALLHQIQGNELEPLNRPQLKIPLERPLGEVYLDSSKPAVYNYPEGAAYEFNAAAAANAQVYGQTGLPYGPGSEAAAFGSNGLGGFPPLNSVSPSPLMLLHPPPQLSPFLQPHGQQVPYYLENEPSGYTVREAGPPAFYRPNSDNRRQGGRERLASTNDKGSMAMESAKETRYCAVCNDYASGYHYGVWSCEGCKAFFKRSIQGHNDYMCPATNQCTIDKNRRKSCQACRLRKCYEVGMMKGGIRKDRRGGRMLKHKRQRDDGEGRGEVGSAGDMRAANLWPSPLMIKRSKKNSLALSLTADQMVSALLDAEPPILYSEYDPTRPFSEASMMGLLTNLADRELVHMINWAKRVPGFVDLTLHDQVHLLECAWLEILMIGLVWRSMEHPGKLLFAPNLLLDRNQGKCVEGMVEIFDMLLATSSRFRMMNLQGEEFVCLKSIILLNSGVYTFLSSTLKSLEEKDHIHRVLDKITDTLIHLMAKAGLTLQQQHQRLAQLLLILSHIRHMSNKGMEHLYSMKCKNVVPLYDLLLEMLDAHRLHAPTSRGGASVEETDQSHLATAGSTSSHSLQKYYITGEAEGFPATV

| Traditional Western Degradation Potency | Compound |
| --- | --- |
| C (“C”: >100 nM) | C[C@@H]1Cc2c([nH]c3ccccc23)[C@@H](c2c(F)cc(C(=O)N3CCC4(CCC(CN5Cc6cc7c(cc6C5)C(=O)N(C5CCC(=O)NC5=O)C7=O)CC4)CC3)cc2F)N1CC(F)F (stereo partly drawn) [Compound B99, 6-((3-(4-((1R,3R)-2-(2,2-difluoroethyl)-3-methyl-2,3,4,9-tetrahydro-1H-pyrido[3,4-b]indol-1-yl)-3,5-difluorobenzoyl)-3-azaspiro[5.5]undecan-9-yl)methyl)-2-(2,6-dioxopiperidin-3-yl)-6,7-dihydropyrrolo[3,4-f]isoindole-1,3(2H,5H)-dione] |
| A (“A”: <10 nM) | C[C@@H]1Cc2c([nH]c3ccccc23)[C@@H](c2cnc(N3CCC4(CC3)CN(C(=O)CN3Cc5cc6c(cc5C3)C(=O)N(C3CCC(=O)NC3=O)C6=O)C4)nc2)N1CC(F)(F)F (stereo partly drawn) [Compound B217, 2-(2,6-dioxopiperidin-3-yl)-6-(2-(7-(5-((1R,3R)-3-methyl-2-(2,2,2-trifluoroethyl)-2,3,4,9-tetrahydro-1H-pyrido[3,4-b]indol-1-yl)pyrimidin-2-yl)-2,7-diazaspiro[3.5]nonan-2-yl)-2-oxoethyl)-6,7-dihydropyrrolo[3,4-f]isoindole-1,3(2H,5H)-dione] |
| C (“C”: >100 nM) | C[C@@H]1Cc2c([nH]c3ccccc23)[C@@H](c2c(F)cc(N3CCC(C(=O)N4CC(N5Cc6cc7c(cc6C5)C(=O)N(C5CCC(=O)NC5=O)C7=O)C4)CC3)cc2F)N1CC(F)F (stereo partly drawn) [Compound B208, 6-(1-(1-(4-((1R,3R)-2-(2,2-difluoroethyl)-3-methyl-2,3,4,9-tetrahydro-1H-pyrido[3,4-b]indol-1-yl)-3,5-difluorophenyl)piperidine-4-carbonyl)azetidin-3-yl)-2-(2,6-dioxopiperidin-3-yl)-6,7-dihydropyrrolo[3,4-f]isoindole-1,3(2H,5H)-dione] |
| B (“B”: 10-100 nM) | C[C@@H]1Cc2c([nH]c3ccccc23)[C@@H](c2c(F)cc(N3CC(C(=O)N4CC(CN5Cc6cc7c(cc6C5)C(=O)N(C5CCC(=O)NC5=O)C7=O)C4)C3)cc2F)N1CC(F)F (stereo partly drawn) [Compound B203, 6-((1-(1-(4-((1R,3R)-2-(2,2-difluoroethyl)-3-methyl-2,3,4,9-tetrahydro-1H-pyrido[3,4-b]indol-1-yl)-3,5-difluorophenyl)azetidine-3-carbonyl)azetidin-3-yl)methyl)-2-(2,6-dioxopiperidin-3-yl)-6,7-dihydropyrrolo[3,4-f]isoindole-1,3(2H,5H)-dione] |
| C (“C”: >100 nM) | C[C@@H]1Cc2c([nH]c3ccccc23)[C@@H](c2cnc(N3CCC4(CC3)CC(CN3Cc5cc6c(cc5C3)C(=O)N(C3CCC(=O)NC3=O)C6=O)C4)nc2)N1CC(C)(C)F (stereo partly drawn) [Compound B186, 2-(2,6-dioxopiperidin-3-yl)-6-((7-(5-((1R,3R)-2-(2-fluoro-2-methylpropyl)-3-methyl-2,3,4,9-tetrahydro-1H-pyrido[3,4-b]indol-1-yl)pyrimidin-2-yl)-7-azaspiro[3.5]nonan-2-yl)methyl)-6,7-dihydropyrrolo[3,4-f]isoindole-1,3(2H,5H)-dione] |

Second part, the compound before the results:

| Compound | Traditional Western Degradation Potency |
| --- | --- |
| C[C@@H]1Cc2c([nH]c3ccccc23)[C@@H](c2c(F)cc(N3CCC(N4CCN(CC(=O)N5Cc6cc7c(cc6C5)C(=O)N(C5CCC(=O)NC5=O)C7=O)CC4)CC3)cc2F)N1CC(F)F (stereo partly drawn) [Compound B35, 6-(2-(4-(1-(4-((1R,3R)-2-(2,2-difluoroethyl)-3-methyl-2,3,4,9-tetrahydro-1H-pyrido[3,4-b]indol-1-yl)-3,5-difluorophenyl)piperidin-4-yl)piperazin-1-yl)acetyl)-2-(2,6-dioxopiperidin-3-yl)-6,7-dihydropyrrolo[3,4-f]isoindole-1,3(2H,5H)-dione] | A (“A”: <10 nM) |
| C[C@@H]1Cc2c([nH]c3ccccc23)[C@@H](c2c(F)cc(N3CC4(CCN(CC(=O)N5Cc6cc7c(cc6C5)C(=O)N(C5CCC(=O)NC5=O)C7=O)C4)C3)cc2F)N1CC(F)F (stereo partly drawn) [Compound B17, 6-(2-(2-(4-((1R,3R)-2-(2,2-difluoroethyl)-3-methyl-2,3,4,9-tetrahydro-1H-pyrido[3,4-b]indol-1-yl)-3,5-difluorophenyl)-2,6-diazaspiro[3.4]octan-6-yl)acetyl)-2-(2,6-dioxopiperidin-3-yl)-6,7-dihydropyrrolo[3,4-f]isoindole-1,3(2H,5H)-dione] | B (“B”: 10-100 nM) |
| C[C@@H]1Cc2c([nH]c3ccccc23)[C@@H](c2c(F)cc(-c3cnc(C(=O)N4CCC(N5Cc6cc7c(cc6C5)C(=O)N(C5CCC(=O)NC5=O)C7=O)CC4)nc3)cc2F)N1CC(F)F (stereo partly drawn) [Compound B86, 6-(1-(5-(4-((1R,3R)-2-(2,2-difluoroethyl)-3-methyl-2,3,4,9-tetrahydro-1H-pyrido[3,4-b]indol-1-yl)-3,5-difluorophenyl)pyrimidine-2-carbonyl)piperidin-4-yl)-2-(2,6-dioxopiperidin-3-yl)-6,7-dihydropyrrolo[3,4-f]isoindole-1,3(2H,5H)-dione] | B (“B”: 10-100 nM) |
| C[C@@H]1Cc2c([nH]c3ccccc23)[C@@H](c2c(F)cc(N3CC(C(=O)N4CCC(CN5Cc6cc7c(cc6C5)C(=O)N(C5CCC(=O)NC5=O)C7=O)CC4)C3)cc2F)N1CC(F)F (stereo partly drawn) [Compound B76, 6-((1-(1-(4-((1R,3R)-2-(2,2-difluoroethyl)-3-methyl-2,3,4,9-tetrahydro-1H-pyrido[3,4-b]indol-1-yl)-3,5-difluorophenyl)azetidine-3-carbonyl)piperidin-4-yl)methyl)-2-(2,6-dioxopiperidin-3-yl)-6,7-dihydropyrrolo[3,4-f]isoindole-1,3(2H,5H)-dione] | A (“A”: <10 nM) |
| C[C@@H]1Cc2c([nH]c3ccccc23)[C@@H](c2c(F)cc(N3CCC4(CCN(CC(=O)N5Cc6cc7c(cc6C5)C(=O)N(C5CCC(=O)NC5=O)C7)CC4)C3)cc2F)N1CC(F)F (stereo partly drawn) [Compound B48, 3-(6-(2-(2-(4-((1R,3R)-2-(2,2-difluoroethyl)-3-methyl-2,3,4,9-tetrahydro-1H-pyrido[3,4-b]indol-1-yl)-3,5-difluorophenyl)-2,8-diazaspiro[4.5]decan-8-yl)acetyl)-1-oxo-3,5,6,7-tetrahydropyrrolo[3,4-f]isoindol-2(1H)-yl)piperidine-2,6-dione] | A (“A”: <10 nM) |
| C[C@@H]1Cc2c([nH]c3ccccc23)[C@@H](c2c(F)cc(C3CCC(C(=O)N4CCC(F)(CN5Cc6cc7c(cc6C5)C(=O)N(C5CCC(=O)NC5=O)C7=O)CC4)CC3)cc2F)N1CC(F)F (stereo partly drawn) [Compound B78, 6-((1-(4-(4-((1R,3R)-2-(2,2-difluoroethyl)-3-methyl-2,3,4,9-tetrahydro-1H-pyrido[3,4-b]indol-1-yl)-3,5-difluorophenyl)cyclohexane-1-carbonyl)-4-fluoropiperidin-4-yl)methyl)-2-(2,6-dioxopiperidin-3-yl)-6,7-dihydropyrrolo[3,4-f]isoindole-1,3(2H,5H)-dione] | B (“B”: 10-100 nM) |
| C[C@@H]1Cc2c([nH]c3ccccc23)[C@@H](c2c(F)cc(N3CCC(N4CCC(CN5Cc6cc7c(cc6C5)C(=O)N(C5CCC(=O)NC5=O)C7)CC4)CC3)cc2F)N1CC(F)F (stereo partly drawn) [Compound B29, 3-(6-((1′-(4-((1R,3R)-2-(2,2-difluoroethyl)-3-methyl-2,3,4,9-tetrahydro-1H-pyrido[3,4-b]indol-1-yl)-3,5-difluorophenyl)-[1,4′-bipiperidin]-4-yl)methyl)-1-oxo-3,5,6,7-tetrahydropyrrolo[3,4-f]isoindol-2(1H)-yl)piperidine-2,6-dione] | B (“B”: 10-100 nM) |
| C[C@@H]1Cc2c([nH]c3ccccc23)[C@@H](c2c(F)cc(N3CCC4(CC3)CC(C(=O)N3CCC(CN5Cc6cc7c(cc6C5)C(=O)N(C5CCC(=O)NC5=O)C7=O)CC3)C4)cc2F)N1CC(F)F (stereo partly drawn) [Compound B39, 6-((1-(7-(4-((1R,3R)-2-(2,2-difluoroethyl)-3-methyl-2,3,4,9-tetrahydro-1H-pyrido[3,4-b]indol-1-yl)-3,5-difluorophenyl)-7-azaspiro[3.5]nonane-2-carbonyl)piperidin-4-yl)methyl)-2-(2,6-dioxopiperidin-3-yl)-6,7-dihydropyrrolo[3,4-f]isoindole-1,3(2H,5H)-dione] | B (“B”: 10-100 nM) |
| C[C@@H]1Cc2c([nH]c3ccccc23)[C@@H](c2c(F)cc(-c3ccc(C(=O)N4CCC(N5Cc6cc7c(cc6C5)C(=O)N(C5CCC(=O)NC5=O)C7=O)CC4)cn3)cc2F)N1CC(F)F (stereo partly drawn) [Compound B89, 6-(1-(6-(4-((1R,3R)-2-(2,2-difluoroethyl)-3-methyl-2,3,4,9-tetrahydro-1H-pyrido[3,4-b]indol-1-yl)-3,5-difluorophenyl)nicotinoyl)piperidin-4-yl)-2-(2,6-dioxopiperidin-3-yl)-6,7-dihydropyrrolo[3,4-f]isoindole-1,3(2H,5H)-dione] | A (“A”: <10 nM) |
| C[C@@H]1Cc2c([nH]c3ccccc23)[C@@H](c2c(F)cc(N3CCC(CN4Cc5cc6c(cc5C4)C(=O)N(C4CCC(=O)NC4=O)C6=O)CC3)cc2F)N1CC(F)F (stereo partly drawn) [Compound B32, 6-((1-(4-((1R,3R)-2-(2,2-difluoroethyl)-3-methyl-2,3,4,9-tetrahydro-1H-pyrido[3,4-b]indol-1-yl)-3,5-difluorophenyl)piperidin-4-yl)methyl)-2-(2,6-dioxopiperidin-3-yl)-6,7-dihydropyrrolo[3,4-f]isoindole-1,3(2H,5H)-dione] | C (“C”: >100 nM) |
| C[C@@H]1Cc2c([nH]c3ccccc23)[C@@H](c2c(F)cc(N3CCC(CN4CCC(CN5Cc6cc7c(cc6C5)C(=O)N(C5CCC(=O)NC5=O)C7=O)CC4)CC3)cc2F)N1CC(F)F (stereo partly drawn) [Compound B65, 6-((1-((1-(4-((1R,3R)-2-(2,2-difluoroethyl)-3-methyl-2,3,4,9-tetrahydro-1H-pyrido[3,4-b]indol-1-yl)-3,5-difluorophenyl)piperidin-4-yl)methyl)piperidin-4-yl)methyl)-2-(2,6-dioxopiperidin-3-yl)-6,7-dihydropyrrolo[3,4-f]isoindole-1,3(2H,5H)-dione] | A (“A”: <10 nM) |
